Like-named read-outs stand apart in the source and are kept apart here.
How the values were obtained:
[1] = system: nucleotide pyrophosphatase-phosphodiesterase 5 (SmNPP-5); assay type: biochemical, S. mansoni; conditions: 10 µM
[2] = molecular target: acetylcholinesterase (AChE); assay type: biochemical, S. haematobium
[3] = system: alkaline phosphatase (AP); assay type: biochemical, S. mansoni; conditions: 10 µM
[4] = molecular target: acetylcholinesterase (AChE); assay type: biochemical, S. mansoni
[5] = system: acetylcholinesterase (AChE); assay type: biochemical, S. mansoni; conditions: 1 µM
[6] = system: human bile duct cell line H69; test: MTT cytotoxicity assay; assay type: cell-based; conditions: 0.1 μM, 72 h

Compound: [Ru(phen)2(Me2bpy)]^2+
- SmNPP-5 Inhibition (%) [1]: 2%
- IC50 [2]: 90.2 ± 1.2 µM
- AChE Inhibition (%) ([2]; 1 µM): 13.3 ± 1.8%
- AP Inhibition (%) [3]: 3%
- IC50 [4]: 67 ± 11.6 µM
- AChE Inhibition (%) ([4]; 1 µM): 9.3 ± 1.8%
- AChE Inhibition (%) [5]: 66.5 ± 5.8%

Compound: COP(=O)(OC)OC=C(Cl)Cl [Dichlorvos, dichlorvos]
- cells killed [6]: 100%

Source: paper PMC5746282, “Polypyridylruthenium(II) complexes exert anti-schistosome activity and inhibit parasite acetylcholinesterases” (PLoS Neglected Tropical Diseases, 2017)
